Test results reported in PubChem BioAssay (NCI).
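Cells were grown in 96-well plates and exposed to each compound for 48 hours at five concentrations; endpoints were interpolated linearly between bracketing concentrations, or set to the highest concentration if not reached. TGI marks complete inhibition of growth.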

Experiments:
Assay in all cases: inhibition of tumour cell growth, NCI panel, 48 h
786-0 renal = system: 786-0 renal
A549 NSCLC = system: A549 NSCLC
ACHN renal = system: ACHN renal
BT-549 breast = system: BT-549 breast
CAKI-1 renal = system: CAKI-1 renal
CCRF-CEM leukemia = system: CCRF-CEM leukemia
COLO 205 colon = system: COLO 205 colon
DU-145 prostate = system: DU-145 prostate
EKVX NSCLC = system: EKVX NSCLC
HCT-116 colon = system: HCT-116 colon
HL-60(TB) leukemia = system: HL-60(TB) leukemia
HOP-62 NSCLC = system: HOP-62 NSCLC
HOP-92 NSCLC = system: HOP-92 NSCLC
HT29 colon = system: HT29 colon
IGROV1 ovarian = system: IGROV1 ovarian
K-562 leukemia = system: K-562 leukemia
KM12 colon = system: KM12 colon
LOX IMVI melanoma = system: LOX IMVI melanoma
M14 melanoma = system: M14 melanoma
MALME-3M melanoma = system: MALME-3M melanoma
MCF7 breast = system: MCF7 breast
MDA-MB-231 breast = system: MDA-MB-231 breast
MDA-MB-435 = system: MDA-MB-435
MDA-N = system: MDA-N
MOLT-4 leukemia = system: MOLT-4 leukemia
NCI-H226 lung = system: NCI-H226 lung
NCI-H23 lung = system: NCI-H23 lung
NCI-H460 lung = system: NCI-H460 lung
NCI-H522 lung = system: NCI-H522 lung
NCI/ADR-RES ovarian = system: NCI/ADR-RES ovarian
OVCAR-3 ovarian = system: OVCAR-3 ovarian
OVCAR-4 ovarian = system: OVCAR-4 ovarian
OVCAR-5 ovarian = system: OVCAR-5 ovarian
OVCAR-8 ovarian = system: OVCAR-8 ovarian
PC-3 prostate = system: PC-3 prostate
RPMI-8226 leukemia = system: RPMI-8226 leukemia
RXF 393 renal = system: RXF 393 renal
SF-268 CNS = system: SF-268 CNS
SF-295 CNS = system: SF-295 CNS
SF-539 CNS = system: SF-539 CNS
SK-MEL-2 melanoma = system: SK-MEL-2 melanoma
SK-MEL-5 melanoma = system: SK-MEL-5 melanoma
SK-OV-3 ovarian = system: SK-OV-3 ovarian
SN12C renal = system: SN12C renal
SNB-75 CNS = system: SNB-75 CNS
SR leukemia = system: SR leukemia
SW-620 colon = system: SW-620 colon
T-47D breast = system: T-47D breast
TK-10 renal = system: TK-10 renal
U251 CNS = system: U251 CNS
UACC-257 melanoma = system: UACC-257 melanoma
UACC-62 melanoma = system: UACC-62 melanoma
UO-31 renal = system: UO-31 renal
HCC-2998 colon = system: HCC-2998 colon
HCT-15 colon = system: HCT-15 colon
HS 578T breast = system: HS 578T breast
SNB-19 CNS = system: SNB-19 CNS

CSc1nc(NCc2ccccc2)c2cnn(COCCO)c2n1
TGI (786-0 renal): > 100 µM
TGI (A549 NSCLC): > 100 µM
TGI (ACHN renal): 62.1 µM
TGI (BT-549 breast): > 100 µM
TGI (CAKI-1 renal): > 100 µM
TGI (CCRF-CEM leukemia): > 100 µM
TGI (COLO 205 colon): 85.7 µM
TGI (DU-145 prostate): > 100 µM
TGI (EKVX NSCLC): 63.5 µM
TGI (HCT-116 colon): > 100 µM
TGI (HL-60(TB) leukemia): > 100 µM
TGI (HOP-62 NSCLC): > 100 µM
TGI (HOP-92 NSCLC): > 100 µM
TGI (HT29 colon): > 100 µM
TGI (IGROV1 ovarian): > 100 µM
TGI (K-562 leukemia): > 100 µM
TGI (KM12 colon): > 100 µM
TGI (LOX IMVI melanoma): > 100 µM
TGI (M14 melanoma): > 100 µM
TGI (MALME-3M melanoma): > 100 µM
TGI (MCF7 breast): > 100 µM
TGI (MDA-MB-231 breast): > 100 µM
TGI (MDA-MB-435): 80.5 µM
TGI (MDA-N): > 100 µM
TGI (MOLT-4 leukemia): 86.7 µM
TGI (NCI-H226 lung): > 100 µM
TGI (NCI-H23 lung): > 100 µM
TGI (NCI-H460 lung): > 100 µM
TGI (NCI-H522 lung): > 100 µM
TGI (NCI/ADR-RES ovarian): > 100 µM
TGI (OVCAR-3 ovarian): > 100 µM
TGI (OVCAR-4 ovarian): > 100 µM
TGI (OVCAR-5 ovarian): > 100 µM
TGI (OVCAR-8 ovarian): > 100 µM
TGI (PC-3 prostate): > 100 µM
TGI (RPMI-8226 leukemia): > 100 µM
TGI (RXF 393 renal): > 100 µM
TGI (SF-268 CNS): > 100 µM
TGI (SF-295 CNS): > 100 µM
TGI (SF-539 CNS): > 100 µM
TGI (SK-MEL-2 melanoma): > 100 µM
TGI (SK-MEL-5 melanoma): > 100 µM
TGI (SK-OV-3 ovarian): > 100 µM
TGI (SN12C renal): > 100 µM
TGI (SNB-75 CNS): 53.6 µM
TGI (SR leukemia): > 100 µM
TGI (SW-620 colon): > 100 µM
TGI (T-47D breast): > 100 µM
TGI (TK-10 renal): > 100 µM
TGI (U251 CNS): > 100 µM
TGI (UACC-257 melanoma): 64 µM
TGI (UACC-62 melanoma): > 100 µM
TGI (UO-31 renal): > 100 µM

CC#CCCCC1(C)CCNC1=S (centres undefined)
TGI (786-0 renal): > 10 µM
TGI (A549 NSCLC): > 10 µM
TGI (ACHN renal): > 10 µM
TGI (BT-549 breast): > 10 µM
TGI (CCRF-CEM leukemia): > 10 µM
TGI (DU-145 prostate): > 10 µM
TGI (EKVX NSCLC): > 10 µM
TGI (HCC-2998 colon): > 10 µM
TGI (HCT-15 colon): > 10 µM
TGI (HL-60(TB) leukemia): > 10 µM
TGI (HOP-92 NSCLC): > 10 µM
TGI (HS 578T breast): > 10 µM
TGI (HT29 colon): > 10 µM
TGI (K-562 leukemia): > 10 µM
TGI (KM12 colon): > 10 µM
TGI (LOX IMVI melanoma): > 10 µM
TGI (M14 melanoma): > 10 µM
TGI (MALME-3M melanoma): > 10 µM
TGI (MCF7 breast): > 10 µM
TGI (MDA-MB-435): > 10 µM
TGI (MDA-N): > 10 µM
TGI (MOLT-4 leukemia): > 10 µM
TGI (NCI-H226 lung): > 10 µM
TGI (NCI-H23 lung): > 10 µM
TGI (NCI-H460 lung): > 10 µM
TGI (NCI-H522 lung): > 10 µM
TGI (OVCAR-3 ovarian): > 10 µM
TGI (OVCAR-4 ovarian): > 10 µM
TGI (OVCAR-5 ovarian): > 10 µM
TGI (OVCAR-8 ovarian): > 10 µM
TGI (PC-3 prostate): > 10 µM
TGI (RXF 393 renal): > 10 µM
TGI (SF-268 CNS): > 10 µM
TGI (SF-295 CNS): > 10 µM
TGI (SF-539 CNS): > 10 µM
TGI (SK-MEL-2 melanoma): > 10 µM
TGI (SK-OV-3 ovarian): > 10 µM
TGI (SN12C renal): > 10 µM
TGI (SNB-19 CNS): > 10 µM
TGI (SNB-75 CNS): > 10 µM
TGI (SR leukemia): > 10 µM
TGI (SW-620 colon): > 10 µM
TGI (TK-10 renal): > 10 µM
TGI (U251 CNS): > 10 µM
TGI (UACC-257 melanoma): > 10 µM
TGI (UO-31 renal): > 10 µM
